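Cells were grown in 96-well plates and exposed to each compound for 48 hours at five concentrations; endpoints were interpolated linearly between bracketing concentrations, or set to the highest concentration if not reached. The concentration for 50% growth inhibition is given as GI50. TGI denotes the concentration required for complete inhibition of growth.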
Assays:
Assay in all cases: inhibition of tumour cell growth, NCI panel, 48 h
786-0 renal = tested on: 786-0 renal
A549 NSCLC = tested on: A549 NSCLC
ACHN renal = tested on: ACHN renal
BT-549 breast = tested on: BT-549 breast
CAKI-1 renal = tested on: CAKI-1 renal
CCRF-CEM leukemia = tested on: CCRF-CEM leukemia
COLO 205 colon = tested on: COLO 205 colon
DU-145 prostate = tested on: DU-145 prostate
HCC-2998 colon = tested on: HCC-2998 colon
HCT-116 colon = tested on: HCT-116 colon
HCT-15 colon = tested on: HCT-15 colon
HL-60(TB) leukemia = tested on: HL-60(TB) leukemia
HOP-62 NSCLC = tested on: HOP-62 NSCLC
HOP-92 NSCLC = tested on: HOP-92 NSCLC
HS 578T breast = tested on: HS 578T breast
HT29 colon = tested on: HT29 colon
IGROV1 ovarian = tested on: IGROV1 ovarian
K-562 leukemia = tested on: K-562 leukemia
KM12 colon = tested on: KM12 colon
LOX IMVI melanoma = tested on: LOX IMVI melanoma
M14 melanoma = tested on: M14 melanoma
MCF7 breast = tested on: MCF7 breast
MDA-MB-231 breast = tested on: MDA-MB-231 breast
MDA-MB-435 = tested on: MDA-MB-435
MOLT-4 leukemia = tested on: MOLT-4 leukemia
NCI-H226 lung = tested on: NCI-H226 lung
NCI-H23 lung = tested on: NCI-H23 lung
NCI-H460 lung = tested on: NCI-H460 lung

Structure (SMILES): CC(=O)Nc1ccc(C(=O)CCl)cc1
- GI50 (786-0 renal): 4.41 µM
- TGI (786-0 renal): 15.2 µM
- GI50 (A549 NSCLC): 18.9 µM
- TGI (A549 NSCLC): 39.2 µM
- GI50 (ACHN renal): 1.8 µM
- TGI (ACHN renal): 3.29 µM
- GI50 (BT-549 breast): 4.94 µM
- TGI (BT-549 breast): 17.1 µM
- GI50 (CAKI-1 renal): 1.78 µM
- TGI (CAKI-1 renal): 3.24 µM
- GI50 (CCRF-CEM leukemia): 2.41 µM
- TGI (CCRF-CEM leukemia): 7.51 µM
- GI50 (COLO 205 colon): 1.97 µM
- TGI (COLO 205 colon): 3.93 µM
- GI50 (DU-145 prostate): 9.19 µM
- TGI (DU-145 prostate): 21.2 µM
- GI50 (HCC-2998 colon): 7.48 µM
- TGI (HCC-2998 colon): 20.7 µM
- GI50 (HCT-116 colon): 2.2 µM
- TGI (HCT-116 colon): 4.95 µM
- GI50 (HCT-15 colon): 2.39 µM
- TGI (HCT-15 colon): 7.6 µM
- GI50 (HL-60(TB) leukemia): 2.4 µM
- TGI (HL-60(TB) leukemia): 5.86 µM
- GI50 (HOP-62 NSCLC): 15 µM
- TGI (HOP-62 NSCLC): 32.1 µM
- GI50 (HOP-92 NSCLC): 2.12 µM
- TGI (HOP-92 NSCLC): 4.95 µM
- GI50 (HS 578T breast): 17.7 µM
- TGI (HS 578T breast): 80.5 µM
- GI50 (HT29 colon): 2.45 µM
- TGI (HT29 colon): 5.04 µM
- GI50 (IGROV1 ovarian): 14.8 µM
- TGI (IGROV1 ovarian): 31 µM
- GI50 (K-562 leukemia): 2.48 µM
- TGI (K-562 leukemia): 5.88 µM
- GI50 (KM12 colon): 12.2 µM
- TGI (KM12 colon): 25.7 µM
- GI50 (LOX IMVI melanoma): 1.93 µM
- TGI (LOX IMVI melanoma): 4.17 µM
- GI50 (M14 melanoma): 2.56 µM
- TGI (M14 melanoma): 7.38 µM
- GI50 (MCF7 breast): 1.66 µM
- TGI (MCF7 breast): 6.54 µM
- GI50 (MDA-MB-231 breast): 4.02 µM
- TGI (MDA-MB-231 breast): 14.8 µM
- GI50 (MDA-MB-435): 4.74 µM
- TGI (MDA-MB-435): 16.6 µM
- GI50 (MOLT-4 leukemia): 2.92 µM
- TGI (MOLT-4 leukemia): 7.06 µM
- GI50 (NCI-H226 lung): 16.9 µM
- TGI (NCI-H226 lung): 42.6 µM
- GI50 (NCI-H23 lung): 11.4 µM
- TGI (NCI-H23 lung): 31.6 µM
- GI50 (NCI-H460 lung): 10.8 µM
